Experimental data reported in ChEMBL document CHEMBL5385959, “Trifluoroacetic acid-mediated synthesis of xanthene constructs and their extensive anti-tuberculosis evaluation” (RSC Med Chem, 2024).
≈ marks a conversion by molar mass, not a printed value. Calls of active or inactive are those of the source. No cut-off for these calls is given here.

Columns and labels:
[1] = tested on: Mycobacterium tuberculosis; assay: Antibacterial activity against Mycobacterium tuberculosis H37Rv assessed as reduction in bacterial growth by broth microdilution method; type: functional
[2] = tested on: Mycobacterium tuberculosis; assay: Antibacterial activity against Mycobacterium tuberculosis H37Rv assessed as reduction in bacterial growth incubated for 14 days by CLSI protocol based method; type: functional; settings: 336 h, time 14 day
[3] = tested on: Pseudomonas aeruginosa; assay: Antibacterial activity against Pseudomonas aeruginosa assessed as reduction in bacterial growth incubated for 24 hrs by broth dilution method; type: functional
[4] = tested on: Mycobacterium tuberculosis; assay: Antibacterial activity against Mycobacterium tuberculosis H37Ra assessed as reduction in bacterial growth incubated for 14 days by CLSI protocol based method; type: functional; settings: 336 h, time 14 day
[5] = tested on: Escherichia coli; assay: Antibacterial activity against Escherichia coli assessed as reduction in bacterial growth incubated for 24 hrs by broth dilution method; type: functional
[6] = tested on: Bacillus subtilis; assay: Antibacterial activity against Bacillus subtilis assessed as reduction in bacterial growth incubated for 24 hrs by broth dilution method; type: functional
[7] = tested on: Mycobacterium tuberculosis; assay: Bactericidal activity Mycobacterium tuberculosis H37Rv assessed as log reduction in CFU at 16 times MIC incubated for 8 days by time kill assay; type: functional; settings: time 8 day
[8] = tested on: Mycobacterium tuberculosis; assay: Synergistic antibacterial activity against Mycobacterium tuberculosis H37Rv assessed as reduction in microbial growth in presence of rifampicin by broth microdilution method; type: functional
[9] = tested on: Mycobacterium tuberculosis; assay: Bactericidal activity Mycobacterium tuberculosis H37Rv assessed as log reduction in CFU incubated for 2 days by time kill assay; type: functional; settings: time 2 day
[10] = tested on: A549; assay: Cytotoxicity against human A549 cells assessed as reduction in cell viability at 200 uM incubated for 48 hrs by MTT assay; type: functional
[11] = tested on: Mycobacterium tuberculosis; assay: Synergistic antibacterial activity against Mycobacterium tuberculosis H37Rv assessed as reduction in microbial growth in presence of isoniazid by broth microdilution method; type: functional
[12] = tested on: Mycobacterium tuberculosis; assay: Bactericidal activity Mycobacterium tuberculosis assessed as reduction in bacterial growth incubated for 28 days by broth microdilution method; type: functional; settings: 672 h, time 28 day
[13] = tested on: Mycobacterium tuberculosis; assay: Synergistic antibacterial activity against Mycobacterium tuberculosis H37Rv assessed as rifampicin MIC by broth microdilution method; type: functional
[14] = tested on: Mycobacterium tuberculosis; assay: Synergistic antibacterial activity against Mycobacterium tuberculosis H37Rv assessed as reduction in microbial growth in presence of ethambutol by broth microdilution method; type: functional
[15] = tested on: Mycobacterium tuberculosis; assay: Bactericidal activity Mycobacterium tuberculosis H37Rv by time kill assay; type: functional, organism-based; settings: time 16.0 day
[16] = tested on: HEK293; assay: Cytotoxicity against HEK293 cells assessed as reduction in cell viability at 100 uM incubated for 48 hrs by MTT assay; type: toxicity, cell-based; settings: human, hek293, 48 h
[17] = tested on: Mycobacterium tuberculosis; assay: Synergistic antibacterial activity against Mycobacterium tuberculosis H37Rv assessed as ethambutol MIC by broth microdilution method; type: functional
[18] = tested on: Mycobacterium tuberculosis; assay: Antibacterial activity against GFP-tagged Mycobacterium tuberculosis H37Rv assessed as reduction in GFP expression at half times MIC incubated for 7 days by confocal microscopic analysis; type: functional, organism-based; settings: time 7.0 day
[19] = tested on: Mycobacterium tuberculosis; assay: Bactericidal activity Mycobacterium tuberculosis H37Rv assessed as log reduction in CFU at 16 times MIC incubated for 2 to 6 days by time kill assay; type: functional; settings: time 2-6 day
[20] = Cytotoxicity against mouse RAW 264 cells assessed as reduction in cell viability at 150 uM incubated for 48 hrs by MTT assay; type: functional
[21] = tested on: Mycobacterium tuberculosis; assay: Synergistic antibacterial activity against Mycobacterium tuberculosis H37Rv assessed as isoniazid MIC by broth microdilution method; type: functional
[22] = tested on: Mycobacterium tuberculosis; assay: Bactericidal activity Mycobacterium tuberculosis H37Rv assessed as reduction in bacterial growth incubated for 2 days by time kill assay; type: functional; settings: 48 h, time 2 day

SMILES | MIC [2] [µg/mL] | MIC [3] [µg/mL] | MIC [4] [µg/mL] | MIC [5] [µg/mL] | MIC [6] [µg/mL] | other results
CO[C@H]1/C=C/O[C@@]2(C)Oc3c(C)c(O)c4c(O)c(c(/C=N/N5CCN(C)CC5)c(O)c4c3C2=O)NC(=O)/C(C)=C\C=C\[C@H](C)[C@H](O)[C@@H](C)[C@@H](O)[C@@H](C)[C@H](OC(C)=O)[C@@H]1C [RIFAMPIN] | – | – | – | – | – | MIC [1]: 8 µg/mL (≈ 9.72 µM)
N#CC1=C(N)OC2=C(C(=O)CCC2)C1c1ccccc1 (centres undefined) | > 64 | – | – | – | – | –
CC1(C)CC(=O)C2=C(C1)OC1=C(C(=O)CC(C)(C)C1)C2c1ccc(C#N)cc1 | 64 (≈ 170 µM) | > 128 | 64 (≈ 170 µM) | > 128 | > 128 | –
CC1(C)CC(=O)C2=C(C1)OC1=C(C(=O)CC(C)(C)C1)C2c1cccc(Cl)c1 | 64 (≈ 166 µM) | > 128 | 64 (≈ 166 µM) | > 128 | > 128 | –
CC1(C)CC(=O)C2=C(C1)OC1=C(C(=O)CC(C)(C)C1)C2c1cccc([N+](=O)[O-])c1 | 64 (≈ 162 µM) | > 128 | 64 (≈ 162 µM) | > 128 | > 128 | –
O=C1CCCC2=C1C(c1ccccc1)C1=C(CCCC1=O)O2 | 64 (≈ 217 µM) | > 128 | 64 (≈ 217 µM) | > 128 | > 128 | –
CC1(C)CC(=O)C2=C(C1)OC1=C(C(=O)CC(C)(C)C1)C2c1ccc(O)cc1 | 64 (≈ 175 µM) | > 128 | 64 (≈ 175 µM) | > 128 | > 128 | –
COc1cccc(C2C3=C(CCCC3=O)OC3=C2C(=O)CCC3)c1 | 8 (≈ 24.7 µM) | > 128 | 8 (≈ 24.7 µM) | > 128 | > 128 | Activity [7]: 5 log10CFU; MIC [8]: 0.5 µg/mL; Activity [9]: >2 log10CFU; Activity [10]: >75%; MIC [11]: 0.25 µg/mL; MIC [1]: 8 µg/mL (≈ 24.7 µM); MBC [12]: 8 µg/mL (≈ 24.7 µM); MIC [13]: 9 ng/mL; MIC [14]: 0.25 µg/mL; Activity [15]: Dose-Dependent Effect; Activity [16]: > 75%; MIC [17]: 0.312 µg/mL; Activity [18]: Active; Activity [19]: 2 log10CFU; Activity [20]: >75%; MIC [21]: 0.078 µg/mL; MIC [22]: 8 µg/mL (≈ 24.7 µM)
CC1(C)CC(=O)C2=C(C1)OC1=C(C(=O)CC(C)(C)C1)C2c1cccc(O)c1 | 64 (≈ 175 µM) | > 128 | 64 (≈ 175 µM) | > 128 | > 128 | –
NNC(=O)c1ccncc1 [ISONIAZID] | 0.625 (≈ 4.56 µM) | – | 0.019 (≈ 0.139 µM) | – | – | MIC [1]: 8 µg/mL (≈ 58.3 µM); Activity [18]: Active
CC1(C)CC(=O)C2=C(C1)OC(N)=C(C#N)C2c1cccc(O)c1 (centres undefined) | > 64 | – | – | – | – | –
O=C1CCCC2=C1C(c1ccc(Br)cc1)C1=C(CCCC1=O)O2 | 64 (≈ 171 µM) | > 128 | 64 (≈ 171 µM) | > 128 | > 128 | –
COc1ccc(OC)c(C2C3=C(CCCC3=O)OC3=C2C(=O)CCC3)c1 | 64 (≈ 181 µM) | > 128 | 64 (≈ 181 µM) | > 128 | > 128 | –
O=C1CCCC2=C1C(c1ccc([N+](=O)[O-])cc1[N+](=O)[O-])C1=C(CCCC1=O)O2 | 64 (≈ 167 µM) | > 128 | 64 (≈ 167 µM) | > 128 | > 128 | –
O=C1CCCC2=C1C(c1cccc(F)c1)C1=C(CCCC1=O)O2 | 64 (≈ 205 µM) | > 128 | 64 (≈ 205 µM) | > 128 | > 128 | –
CC1(C)CC(=O)C2=C(C1)OC1=C(C(=O)CC(C)(C)C1)C2c1cccc(Br)c1 | 64 (≈ 149 µM) | > 128 | 64 (≈ 149 µM) | > 128 | > 128 | –
